Values quoted from earlier work in patent US11033613B2, “Methods and compositions for treating cancer” (Memorial Sloan Kettering Cancer Center, priority 2015, dated 2021).

Test system: CD4+ and CD8+ responses
Conditions: according to data from preclinical and phase 1 studies

SGQAYMFPNAPYLPSCLES [WT1-122A1 long]
stimulation of CD4+ and CD8+ responses: stimulate both CD4+ and CD8+ responses
